Here are results for one substance from US20040141944A1, “Inhibition of xenoreactive antibodies” (priority 1998, published 2004).

The test system of one data set is xenoreactive antibodies. The experiment in a line: TPC treatment with discordant xenotransplant (pig heart) in cynomolgous monkeys. The data set is classed as in vivo. How it is done:
The TPC molecule 410S was prepared as described above in Example 5. Three monkeys received 250 mg TPC (# 19-97, 18-97, 21-97), and two monkeys received 250 mg control vehicle (#28-97, 23-97) every 3 days for 2 weeks (total 6 doses/animal) via IV infusion. 250 mg/5 mL per vial was supplied as sterile solution to be injected into 50 ML sterile physiological saline in an IV bag and administered IV at a rate of approximately 2-3 mLs/min. Prior to administration and 15-60 minutes after administration was complete, 1-3 mLs of blood was drawn for serum from each monkey at a site distant from the site of administration. On the day of the 6th dose, each monkey underwent a heterotopic heart transplant following drug infusion. A heart from a transgenic pig which expresses human CD59 and human CD55 was placed in the abdominal position as described (Byrne, et al., 1997, Transplantation 63:149-155) and remained in place up to 6 hours before being explanted.
Following the transplant and explant, the monkeys continued infusion of either TPC or control vehicle, as above, once per day for 9 days. Blood was drawn for serum analysis before and after each administration. The monkeys were monitored for at least 15 days after cessation of TPC administration, and blood was drawn 2 times per week for serum analysis. One monkey died 2 days post-transplant.

A further data set has as its system IgM XNAs. The experiment in a line: effect of TPC on xenoreactive antibody level in baboons. The data set is classed as in vivo, baboon. The text has this:
The TPC molecule 410S was synthesized as described in Example 5 above. Baboons were first immunoapheresed using α-gal-columns in order to remove circulating αGal antibodies, and to set a basis for comparison of the ability of TPC to remove αGal antibodies from the circulation.
The procedures for treating and transplanting the baboons are described in Shu S. Lin et al., Transplant Immunol. 5:212-218, 1997. Descriptions of methods for making αGal-columns are contained in U.S. Pat. Nos. 5,695,759 and 5,651,968, which are herein incorporated by reference. Briefly, each baboon subject was prepared for plasma treatment by induction of anesthesia with ketamine HCl and pentamine, and anesthesia was then maintained during all procedures under inhalation and Forane™ gas. The subject's bloodstream was asceptically connected by intravenous puncture to a plasmapheresis machine which separated the plasma from the cells and platelets. The plasma was asceptically conducted to an α-gal column; effluent from the column was pumped and remixed on-line with the cells and platelets, and reinfused to the subject. This procedure was carried out continuously for 2-3 plasma volumes. The blood flow rate of 75-100 cc/min (with a plasma flow rate of 35-50 cc/min), was well tolerated by the subject. The entire column procedure lasted 1-1.5 hours.
250 mg of TPC (410S, as described in Example 5 above) was administered as noted in FIGS. 12 and 13.

Data set [1] deals with xenoreactive IgG (X IgG) and xenoreactive IgM (X IgM). The experiment in a line: effect of TPC on xenoreactive antibody levels in cynomolgous monkeys. The data set is classed as in vivo. As to the method: TPC molecule 410S was prepared as described in Example 5. 410S or PEG control was administered to cynomolgous monkeys in doses of either 50 mg or 250 mg every 3 days for 2 weeks. Blood was drawn for serum before and after each administration. During the subsequent 2 week period, blood was drawn each Monday and Friday. Serum samples were analyzed for xenoreactive IgG (X IgG) and xenoreactive IgM (X IgM).

Data set [2] relates to peripheral blood-derived ASCs. The experiment in a line: short-term in vitro effects of TPC on peripheral blood-derived ASCs (ELISPOT). Particulars: 50 ug/mL TPC (410S), 2 hours at 37° C., heparinized peripheral blood from a normal donor. The data set is classed as cell-based. How it is done:
To each well of the first 10 columns of a sterile hydrazine modified polystyrene 96-well plate (Corning Costar, Cambridge, Mass.), 100 μL per well of a solution containing 3.2 mg/mL αGal(1,3)Gal β 1-4 GlcNAc, 3.1 mg/mL EDC and 2.4 mg/mL NHS were added in a darkened cold room and the reaction proceeded for four hours. After careful washing with sterile H2O, the plates were completely covered with plastic strips and stored at 4° C. until use. Plates were blocked with sterile 400 ul/well of PBS/1% HSA for 2 hours at 37° C. Peripheral blood mononuclear cells were isolated by Ficoll-Hypaque (specific gravity, 1.077 g/mL; Pharmacia Fine Chemicals, Piscatawy, N.J.) density gradients at 400 g for 30 min. at 22° C. […] Plates were incubated overnight in the dark at room temperature and single Ab-secreting, spot forming cells (ASC) were visualized, analyzed and counted under low magnification using an inverted phase microscope. Data represents total isotype specific anti-gal Ab-secreting cells/10^6 PBMNCs, calculated from serially diluted cell samples.
short-term in vitro effects of TPC on peripheral blood-derived ASCs were assessed by incubating (2 hours at 37° C., with rotation at 6 rpm) heparinized peripheral blood from a normal donor in the presence or absence of 50 ug/mL TPC (410S). […]

On to “(αGal(1,3)Gal β 1-4 GlcNAc)4-PEG [Example 410S]”, for which the xenoreactive antibody levels result in the data set with xenoreactive antibodies (250 mg TPC, during the 9 days of TPC administration following explant of the pig heart) is “maintained low levels”. The XNA levels entry in the data set on xenoreactive antibodies (following cessation of TPC) is on record as “rose, but not as dramatically as in the non-TPC-treated control”. Besides, the “IgM XNA, % pretreatment levels” value is recorded as “about 5%” with IgM XNAs (Baboon 376-96, after next administration of 250 mg TPC) and 35% in the data set with IgM XNAs (Baboon 376-96, three days after first TPC (rebound)). For the same substance, the “circulating IgM XNA levels” value in the data set on IgM XNAs (Baboon 376-96, after second immunoapheresis plus 250 mg TPC) is “undetectable”. The “circulating levels of IgM XNA” value with IgM XNAs (Baboon 376-96, six subsequent administrations of 250 mg TPC every 3 or 4 days) is “lower each time”. Also, the “levels of IgM XNAs” value in the data set on IgM XNAs (Baboon 377-96, infusion of 250 mg TPC after third immunoapheresis) is “undetectable”. The “IgM XNA levels, % pretreatment levels” value in the data set with IgM XNAs (Baboon 377-96, three days after the 250 mg TPC infusion (rebound)) is “about 15%”. In addition, the “effect on anti-Gal IgG levels” value in data set [1] (50 mg and 250 mg doses, compared with the IgM effect) is listed as “the effect was not as dramatic”. Further, the “anti-Gal IgM level, % of the initial level” value is given as around 40% in data set [1] (50 mg animals, 15 days post-treatment); “approximately 15%” in data set [1] (50 mg dose every 3 days, after 6 TPC treatments); “approximately 5%” in data set [1] (250 mg dose every 3 days, after 6 TPC treatments). Besides, the “anti-Gal IgM level, % of the predosing level” value in data set [1] (250 mg animals, 15 days post-treatment) is on record as 15%. Further, the “effect on the number of detectable ASCs” value in data set [2] is “no effect”. Moreover, the “effect on total cell yield and viability” value in data set [2] is on record as “no effect”.
